Active and inactive are the calls of the source. The calls are words filed in the database; no cut-off is given here.
Experiments:
SK-MEL [1] = experiment: Cytotoxicity against Homo sapiens (human) SK-MEL cells by neutral red staining; format: functional, cell-based
KB [2] = experiment: Cytotoxicity against Homo sapiens (human) KB cells by neutral red staining; format: functional, cell-based
[3] = target: T1, DNA topoisomerase 1 (Homo sapiens) (UniProt P11387); experiment: Inhibition of Homo sapiens (human) topoisomerase 1 assessed as relaxation of supercoiled DNA up to 25 uM by agarose gel electrophoresis
T1 sequence (whole entry): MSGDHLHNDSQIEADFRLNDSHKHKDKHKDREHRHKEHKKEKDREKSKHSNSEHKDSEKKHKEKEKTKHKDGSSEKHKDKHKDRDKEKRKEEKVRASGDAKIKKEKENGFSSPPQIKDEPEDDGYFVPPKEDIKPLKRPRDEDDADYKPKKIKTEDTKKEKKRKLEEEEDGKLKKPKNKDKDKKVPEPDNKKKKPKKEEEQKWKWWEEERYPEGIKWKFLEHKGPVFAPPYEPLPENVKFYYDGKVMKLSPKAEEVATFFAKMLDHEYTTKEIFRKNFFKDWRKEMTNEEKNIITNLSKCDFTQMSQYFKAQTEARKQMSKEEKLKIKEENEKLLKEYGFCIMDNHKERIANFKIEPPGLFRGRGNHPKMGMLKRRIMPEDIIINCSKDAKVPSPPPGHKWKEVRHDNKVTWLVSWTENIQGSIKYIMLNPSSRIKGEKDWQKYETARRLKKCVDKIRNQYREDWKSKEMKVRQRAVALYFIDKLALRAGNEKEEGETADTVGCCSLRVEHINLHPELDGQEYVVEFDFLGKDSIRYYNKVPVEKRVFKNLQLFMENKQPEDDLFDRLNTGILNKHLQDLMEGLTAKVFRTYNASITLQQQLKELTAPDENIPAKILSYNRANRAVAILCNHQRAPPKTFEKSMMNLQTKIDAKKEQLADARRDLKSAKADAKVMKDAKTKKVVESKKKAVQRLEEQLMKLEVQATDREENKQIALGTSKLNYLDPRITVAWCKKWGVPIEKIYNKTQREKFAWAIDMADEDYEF

[4] = target: T2, DNA topoisomerase 2-alpha (Homo sapiens, UniProt P11388); experiment: Inhibition of Homo sapiens (human) topoisomerase 2 assessed as decatenation of KDNA by agarose gel electrophoresis
[5] = target: T1, DNA topoisomerase 1 (Homo sapiens); experiment: Inhibition of Homo sapiens (human) topoisomerase 1 assessed as production of nicked DNA up to 25 uM by agarose gel electrophoresis
LLC-PK1 [6] = experiment: Cytotoxicity against Sus scrofa (pig) LLC-PK1 cells by neutral red staining; format: cell-based
Vero [7] = experiment: Cytotoxicity against Chlorocebus aethiops (African green monkey) Vero cells by neutral red staining; format: cell-based; details: chlorocebus sabaeus
BT-549 [8] = experiment: Cytotoxicity against Homo sapiens (human) BT549 cells by neutral red staining; format: functional, cell-based
SK-OV-3 [9] = experiment: Cytotoxicity against Homo sapiens (human) SKOV3 cells by neutral red staining; format: functional, cell-based
BT-549 [10] = experiment: Cytotoxicity against Homo sapiens (human) BT549 cells up to 25 uM by neutral red staining; format: functional, cell-based
KB [11] = experiment: Cytotoxicity against Homo sapiens (human) KB cells up to 25 uM by neutral red staining; format: functional, cell-based
SK-MEL [12] = experiment: Cytotoxicity against Homo sapiens (human) SK-MEL cells up to 25 uM by neutral red staining; format: functional, cell-based
[13] = target: T2, DNA topoisomerase 2-alpha; experiment: Inhibition of Homo sapiens (human) topoisomerase 2 assessed as decatenation of KDNA up to 25 uM by agarose gel electrophoresis
LLC-PK1 [14] = experiment: Cytotoxicity against Sus scrofa (pig) LLC-PK1 cells up to 25 uM by neutral red staining; format: cell-based
Vero [15] = experiment: Cytotoxicity against Chlorocebus aethiops (African green monkey) Vero cells up to 25 uM by neutral red staining; format: cell-based; details: chlorocebus sabaeus
SK-OV-3 [16] = experiment: Cytotoxicity against Homo sapiens (human) SKOV3 cells up to 25 uM by neutral red staining; format: functional, cell-based

T2 sequence (P11388 whole entry): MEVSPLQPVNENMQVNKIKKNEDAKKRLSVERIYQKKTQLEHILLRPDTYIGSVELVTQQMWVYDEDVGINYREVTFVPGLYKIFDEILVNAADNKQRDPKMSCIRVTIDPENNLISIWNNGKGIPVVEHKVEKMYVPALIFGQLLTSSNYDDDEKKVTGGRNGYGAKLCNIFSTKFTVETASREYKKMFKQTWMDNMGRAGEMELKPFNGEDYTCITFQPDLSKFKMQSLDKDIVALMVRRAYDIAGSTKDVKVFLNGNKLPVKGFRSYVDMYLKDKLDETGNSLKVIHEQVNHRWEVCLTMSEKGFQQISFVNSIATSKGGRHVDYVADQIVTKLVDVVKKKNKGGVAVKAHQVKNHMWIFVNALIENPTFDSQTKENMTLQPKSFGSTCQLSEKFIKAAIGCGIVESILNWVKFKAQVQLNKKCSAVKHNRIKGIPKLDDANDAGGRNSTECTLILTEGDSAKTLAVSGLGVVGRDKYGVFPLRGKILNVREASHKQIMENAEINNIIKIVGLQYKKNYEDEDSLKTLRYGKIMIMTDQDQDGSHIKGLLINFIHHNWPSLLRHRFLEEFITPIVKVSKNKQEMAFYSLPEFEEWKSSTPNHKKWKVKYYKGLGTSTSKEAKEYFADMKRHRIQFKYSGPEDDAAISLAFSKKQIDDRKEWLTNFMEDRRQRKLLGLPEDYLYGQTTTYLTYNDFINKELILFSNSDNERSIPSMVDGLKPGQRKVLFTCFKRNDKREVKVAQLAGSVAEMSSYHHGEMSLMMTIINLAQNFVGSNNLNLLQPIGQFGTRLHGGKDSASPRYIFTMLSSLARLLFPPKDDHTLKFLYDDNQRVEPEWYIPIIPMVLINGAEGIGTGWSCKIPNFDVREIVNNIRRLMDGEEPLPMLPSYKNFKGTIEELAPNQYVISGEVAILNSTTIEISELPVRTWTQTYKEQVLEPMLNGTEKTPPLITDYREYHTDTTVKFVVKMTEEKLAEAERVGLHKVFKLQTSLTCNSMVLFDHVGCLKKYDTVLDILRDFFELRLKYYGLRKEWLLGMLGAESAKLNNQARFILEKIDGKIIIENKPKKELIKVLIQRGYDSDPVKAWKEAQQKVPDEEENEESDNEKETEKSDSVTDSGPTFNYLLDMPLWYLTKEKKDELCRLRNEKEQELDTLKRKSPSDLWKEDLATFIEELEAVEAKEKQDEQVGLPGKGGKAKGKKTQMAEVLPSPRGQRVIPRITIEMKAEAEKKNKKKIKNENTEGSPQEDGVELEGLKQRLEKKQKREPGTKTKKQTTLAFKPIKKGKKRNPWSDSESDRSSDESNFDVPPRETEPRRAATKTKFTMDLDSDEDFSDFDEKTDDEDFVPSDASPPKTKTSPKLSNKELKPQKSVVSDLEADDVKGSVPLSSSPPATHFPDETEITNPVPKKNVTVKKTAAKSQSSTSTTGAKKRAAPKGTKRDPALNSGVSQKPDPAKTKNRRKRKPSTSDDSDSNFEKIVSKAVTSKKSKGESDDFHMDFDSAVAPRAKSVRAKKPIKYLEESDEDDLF

| SMILES | inhibition [3] | IC50 [4] | inhibition [5] | inhibition [13] | IC50 (SK-MEL [1]) | IC50 (KB [2]) | IC50 (LLC-PK1 [6]) | IC50 (Vero [7]) | IC50 (BT-549 [8]) | IC50 (SK-OV-3 [9]) | Activity (BT-549 [10]) | Activity (KB [11]) | Activity (SK-MEL [12]) | Activity (LLC-PK1 [14]) | Activity (Vero [15]) | Activity (SK-OV-3 [16]) |
| --- | --- | --- | --- | --- | --- | --- | --- | --- | --- | --- | --- | --- | --- | --- | --- | --- |
| CCOc1cc(/C=C/C(=O)CC(=O)/C=C/c2ccc(OC(=O)CN(CCCl)CCCl)c(OCC)c2)ccc1OC(=O)CN(CCCl)CCCl | inactive | 3.4 µM | inactive |  | 14.5 µM | 21.5 µM | 13.8 µM | 15 µM | 11 µM | 13.5 µM |  |  |  |  |  |  |
| COc1cc(/C=C/C(=O)CC(=O)/C=C/c2ccc(OC(=O)CNc3nnc(C)s3)c(OC)c2)ccc1OC(=O)CNc1nnc(C)s1 | inactive | 15 µM | inactive |  | 7.5 µM | 22.5 µM | 22.5 µM | 23 µM | 8.75 µM |  |  |  |  |  |  | inactive |
| CCOc1cc(/C=C/C(=O)CC(=O)/C=C/c2ccc(OC(=O)CNCCCl)c(OCC)c2)ccc1OC(=O)CNCCCl | inactive | 4.1 µM | inactive |  | 13.3 µM | 12.5 µM | 6.8 µM | 11 µM | 9 µM |  |  |  |  |  |  | inactive |
| COc1cc(/C=C/C(=O)CC(=O)/C=C/c2ccc(OC(=O)CCNCCCl)c(OC)c2)ccc1OC(=O)CCNCCCl | inactive | 2.9 µM | inactive |  | 15 µM | 11.5 µM | 16.8 µM | 12.5 µM | 11 µM | 23.8 µM |  |  |  |  |  |  |
| COc1cc(/C=C/C(=O)CC(=O)/C=C/c2ccc(OC(=O)CN(CCCl)CCCl)c(OC)c2)ccc1OC(=O)CN(CCCl)CCCl | inactive | 5 µM | inactive |  | 7 µM | 19.5 µM | 20 µM | > 25 µM | 6.75 µM |  |  |  |  |  |  | inactive |
| COc1cccc2c1C(=O)c1c(O)c3c(c(O)c1C2=O)C[C@@](O)(C(=O)CO)C[C@@H]3O[C@H]1C[C@H](N)[C@H](O)[C@H](C)O1 [DOXORUBICIN] |  |  |  |  | 0.55 µM | < 0.55 µM | 0.75 µM | > 5 µM | < 0.55 µM | 0.8 µM |  |  |  |  |  |  |
| CCN(CC)CCNCC(=O)Oc1ccc(/C=C/C(=O)CC(=O)/C=C/c2ccc(OC(=O)CNCCN(CC)CC)c(OC)c2)cc1OC | inactive | 3 µM | inactive |  | 8.5 µM | 24 µM |  | 19.5 µM | 16.3 µM | 15.5 µM |  |  |  | Non-toxic |  |  |

Continued, in another order:

| inhibition [3] | IC50 [4] | inhibition [5] | inhibition [13] | SMILES | IC50 (SK-MEL [1]) | IC50 (KB [2]) | IC50 (LLC-PK1 [6]) | IC50 (Vero [7]) | IC50 (BT-549 [8]) | IC50 (SK-OV-3 [9]) | Activity (BT-549 [10]) | Activity (KB [11]) | Activity (SK-MEL [12]) | Activity (LLC-PK1 [14]) | Activity (Vero [15]) | Activity (SK-OV-3 [16]) |
| --- | --- | --- | --- | --- | --- | --- | --- | --- | --- | --- | --- | --- | --- | --- | --- | --- |
| inactive | 10 µM | inactive |  | CCOc1cc(/C=C/C(=O)CC(=O)/C=C/c2ccc(OC(=O)CNCCN(CC)CC)c(OCC)c2)ccc1OC(=O)CNCCN(CC)CC | 11.5 µM | 11.5 µM | 5.8 µM | 5 µM | 10 µM | 14.8 µM |  |  |  |  |  |  |
| inactive |  | inactive | inactive | CCOc1cc(/C=C/C(=O)CC(=O)/C=C/c2ccc(OC(=O)CCNCCN(C)C)c(OCC)c2)ccc1OC(=O)CCNCCN(C)C |  |  |  |  |  |  | inactive | inactive | inactive | Non-toxic | Non-toxic | inactive |
| inactive | 3 µM | inactive |  | COc1cc(/C=C/C(=O)CC(=O)/C=C/c2ccc(OC(=O)CCNc3nnc(C)s3)c(OC)c2)ccc1OC(=O)CCNc1nnc(C)s1 | 7.5 µM | 16.3 µM | 15.5 µM | 15 µM | 4.25 µM |  |  |  |  |  |  | inactive |
| inactive | 2.7 µM | inactive |  | CCOc1cc(/C=C/C(=O)CC(=O)/C=C/c2ccc(OC(=O)CNc3nnc(C)s3)c(OCC)c2)ccc1OC(=O)CNc1nnc(C)s1 | 12.5 µM | 11.5 µM | 13 µM | 11.5 µM | 12 µM | 15.8 µM |  |  |  |  |  |  |
| inactive | 3 µM | inactive |  | COc1cc(/C=C/C(=O)CC(=O)/C=C/c2ccc(OC(=O)CNc3ccc(S(N)(=O)=O)cc3)c(OC)c2)ccc1OC(=O)CNc1ccc(S(N)(=O)=O)cc1 | 18.8 µM | 14 µM | 15.8 µM | 11 µM | 10.5 µM | 22.5 µM |  |  |  |  |  |  |
| inactive | 12 µM | inactive |  | CCOc1cc(/C=C/C(=O)CC(=O)/C=C/c2ccc(OC(=O)CNc3nc4ccc(OC)cc4s3)c(OCC)c2)ccc1OC(=O)CNc1nc2ccc(OC)cc2s1 | 4.75 µM |  |  |  |  | 2.8 µM | inactive | inactive |  | Non-toxic | Non-toxic |  |
| inactive | 16 µM | inactive |  | COc1cc(/C=C/C(=O)CC(=O)/C=C/c2ccc(OC(=O)CNCCN(C)C)c(OC)c2)ccc1OC(=O)CNCCN(C)C | 15 µM |  |  |  | 20 µM | 22.5 µM |  | inactive |  | Non-toxic | Non-toxic |  |

Source: ChEMBL document CHEMBL3046266, “Synthesis of curcumin and ethylcurcumin bioconjugates as potential antitumor agents” (Med Chem Res, 2012)
